According to publication PMC9143043, “Synthesis and Biological Evaluation of 5′-O-Fatty Acyl Ester Derivatives of 3′-Fluoro-2′,3′-dideoxythymidine as Potential Anti-HIV Microbicides” (Molecules, 2022):
Read-outs that look alike come from different tables or passages of the source.

What was measured:
[1] = test system: HIV-1 strain IIIB (lymphocytotropic strain); assay: Single-round infection assay, cell-free X4 virus (lymphocytotropic strain); assay type: cell-based
Description: (§1) Anti-HIV activities of the compounds were evaluated according to the previously reported procedure. In summary, the HeLa (Human cervical carcinoma: ATCC CCL-2.1) cell line was used to measure the inactivation of both the cell-free virus preparations and virus-infected cell preparations. The cells were plated in culture plates 24 h prior to each experiment. Cell-free viral preparations of HIV-1 strains IIIB (lymphocytotropic strain) and BaL (monocytotropic strain) were used for the cell-free assay. For the cell-associated assay, the SulT1 cells were infected with IIIB virus 5 days prior to the experiment. Cell-free virus and virus-infected cells were mixed with different compounds and diluted to make different concentrations. The mixture was further diluted with the buffer and added to the HeLa cells.

[2] = Cytotoxicity assay (MTS); assay type: cell-based; conditions: human, HeLa cells (ATCC CCL-2.1)
[3] = test system: human vaginal cells (VK-2/E6E7); assay: Vaginal cell cytotoxicity (MTS assay); assay type: cell-based; conditions: 6 h incubation; 31-1000 µg/mL
Description: A commercially used spermicidal agent (N-9) and conjugate cytotoxicity was evaluated using immortalized human vaginal cells (VK-2/E6E7). […] Observed cytotoxicity from N-9 could be correlated with the generation of higher levels of cytokines by N-9.
(§2) Human T lymphoblastoid cells (CCRF-CEM, ATCC No. CCL-119) were grown to 70% confluency in a culture medium. CCRF-CEM cells were incubated with 10 µM of the compounds and mixed with trypan blue (0.1%) to color the dead cells. The percentage of viability was calculated by using a Cellometer Auto T.4 (Nexcelom Bioscience). The cell viability against the vaginal cells (VK-2/E6E7) was conducted according to the previously reported procedure. The effect of conjugates on the sperm viability and mobility was evaluated as described previously.
Figure 2 (A) Dose–response curves of the vaginal cytotoxicity in VK-2 cells (MTS assay) for 5, 6, 8, and N-9 after 6 h incubations. (B) Proinflammatory cytokine (IL-1α) production in the VK-2 cells (ELISA) after a 6 h incubation in the presence of 5, 6, 8, and N-9.

[4] = test system: HIV-1; assay: Anti-HIV activity overall (cell-free and cell-associated assays) and antiviral index; assay type: cell-based; conditions: for antiviral index, times better than AZT: versus AZT; for antiviral index, times better than FLT: versus FLT
Description: Table 2, Table 3 and Table 4 illustrate the anti-HIV-1 activities against the cell-free, cell-associated, and multidrug-resistant virus and sperm inhibiting properties of the selected compounds. In summary, the anti-HIV activity of 5′-substituted derivatives of FLT and AZT (5–18) was dependent on the nature of the 5′-substituent. […] None of the other esters were active against cell-associated virus. […] The difference in the activity of fatty acyl derivatives of FLT compared to each other and FLT may be due to their differences in the rate of uptake and intracellular hydrolysis.
By design, the ester moiety in the conjugates needs to be hydrolyzed to render parent nucleosides and fatty acids to produce anti-HIV activity. The anti-HIV activities of 5′-O-ether substituted FLT and AZT (3 and 4, Scheme 2) with a stable tetradecanyl (myristyl) group were compared with hydrolyzable 5′-O-ester substituted FLT and AZT (6 and 7).
as §1

[5] = test system: sperm; assay: Spermicidal activity (sperm viability and motility); assay type: cell-based; conditions: abstract; versus N-9 positive control
Description: In this study, several fatty acyl conjugates of nucleosides (5–8, 10–12, 15, and 16) were tested for their spermicidal activities. […] Detailed data analysis is available in the Supplementary Materials (Figure S2).
as §2

[6] = test system: cell-associated HIV-1 IIIB (infected SulT1 cells); assay: Cell-associated transmission assay (IIIB); assay type: cell-based; conditions: Human immunodeficiency virus 1, IIIB
Description: as §1

[7] = test system: HIV-1 strain BaL (monocytotropic strain); assay: Single-round infection assay, cell-free R5 virus (monocytotropic strain); assay type: cell-based; conditions: Human immunodeficiency virus 1, BAL
Description: as §1

[8] = test system: CCRF-CEM cells; assay: Real-time fluorescence microscopy in live cells; assay type: cell-based, human; conditions: 10 µM, 1 h
Description: Cells incubated with 10 µM of DMSO, FAM, 23 and 24 for 1 h were used for real time fluorescence microscopy using transmitted light microscopy equipped with a differential-interference contrast method and an Achroplan 40× objective.
The products were purified on a Phenomenex®Gemini 10 µm ODS reversed-phase column (2.1 × 25 cm) with a Hitachi HPLC system using a gradient increment in the acetonitrile (0.1%TFA) concentration from 0 to 100% in 45 min at a constant flow rate of 17 mL/min. The purity of the compounds was confirmed by using an analytical Hitachi analytical HPLC system on a C18 column (Grace Allsphere ODS 2–3 µ, 150 × 4.6 mm) using a gradient system (water:acetonitrile 30:70 v/v) at a constant flow rate of 1 mL/min with a UV detection at 265 nm. The chemical structures of the final products were characterized by nuclear magnetic resonance spectrometry (^1H NMR and ^13C NMR) determined on a Bruker NMR spectrometer (400 MHz, Daltonik, Bremen, Germany) and confirmed by a high-resolution PE Applied Biosystems Mariner API time-of-flight electrospray mass spectrometer (Waltham, MA, USA). Chemical shifts are reported in parts per millions (ppm). For cellular uptake studies, cells were analyzed by flow cytometry (FACSCalibur: Becton Dickinson, San Jose, CA, USA) using the FITC channel and CellQuest software 7.5.3 (Becton Dickinson, San Jose, CA, USA). […]

[9] = test system: CCRF-CEM cells; assay: Cell viability study (trypan blue, Cellometer); assay type: cell-based, human; conditions: 10 µM, 24 h incubation
Description: Cell viability study was performed to analyze the effect of FAM, 23, and 24 on the live cells. The CCRF-CEM cells were incubated with 10 µM of the compounds and mixed with trypan blue (0.1%) to color the dead cells. The percentage of viability was calculated by using Cellometer Auto T.4 (Nexcelom Bioscience). It was observed that at least 80% of the cells were viable in the presence of the compounds in a 24 h incubation period (Supporting Materials, Figure S1).
as §2

[10] = test system: HIV-infected T4 lymphocytes; set-up: method as in PMID 9191015; conditions: read-out: EC50 against HIV-infected T4 lymphocytes; cited from earlier work
[11] = test system: HIV-1 98USMSC5016 (C-Wild Type); assay: PBMC multi-round infection assay, clinical isolate 98USMSC5016; assay type: cell-based; conditions: Human immunodeficiency virus 1
Description: (§3) Based on a preliminary screening, conjugates 5 and 8 were evaluated for their ability to inhibit a drug-resistant virus in a peripheral blood mononuclear cell (PBMC) assay. In this assay, FLT, 5, and 8 were tested against B- and C-wild type and A-17 and 4755–5 multidrug-resistant (MDR) clinical isolates of HIV-1, where compounds were incubated with PBMCs for 6 h and then washed off before the addition of the virus and further culture for 7 days.
(§4) For the assessment of compounds against the wild type (WT; R5; clones = 94US3393IN [B subtype] and 98USMSC5016 [C subtype]) and drug-resistant (clones = 4755−5 and A17) HIV-1 clinical isolates, PHA-P stimulated cells from at least two normal donors were pooled, diluted in fresh media, and plated in the interior wells of a 96-well round-bottom microplate. Pooling PBMCs from more than one donor was used to minimize the variability observed between the individual donors, which results from the quantitative and qualitative differences in HIV infection and overall response to the PHA and IL-2 of primary lymphocyte populations. Each plate contained virus/cell control wells (cells + virus), experimental wells (drug + cells + virus), and compound control wells (drug + media, no cells, necessary for MTS monitoring of cytotoxicity). Test drug dilutions were prepared in microtiter tubes, and each concentration was placed in appropriate wells. Following the addition of the drug dilutions to the PBMCs, a predetermined dilution of virus stock was then placed in each test well (final MOI ≅ 0.1). Because HIV-1 is not cytopathic to PBMCs, the same assay plate can be used for both the antiviral efficacy and cytotoxicity measurements. Compounds were incubated with virus and cells in a 96-well format for 6 h. The cells were then washed by removing 75% of the medium (150 μL) and replacing it with 150 μL of fresh (no drug) medium. The plates were then centrifuged (∼200 g) for 10 min, after which 150 μL of the medium was removed, and an additional 150 μL of fresh medium was added to each well and further incubated for 6 days or until peak reverse transcriptase (RT) activity was detected. A microtiter plate-based RT reaction was utilized. Incorporated radioactivity (counts per minute, CPM) was quantified using standard liquid scintillation techniques. Compound IC50 (50%, inhibition of virus replication) was calculated using statistical software and regression analysis. A cellular uptake study was conducted for fluorescence conjugates 23 and 24 using a previously published procedure with minor modifications. All of the experiments were conducted in triplicate.

[12] = test system: HIV-1 94US3393IN (B-Wild Type); assay: PBMC multi-round infection assay, clinical isolate 94US3393IN; assay type: cell-based; conditions: Human immunodeficiency virus 1
Description: as §3, §4

[13] = test system: HIV-1 A-17 MDR (B-NNRTI); assay: PBMC multi-round infection assay, resistant isolate A-17; assay type: cell-based
Description: as §3, §4

[14] = test system: HIV-1 4755-5 MDR (B-MDR); assay: PBMC multi-round infection assay, resistant isolate 4755-5; assay type: cell-based
Description: as §3, §4

[15] = Human immunodeficiency virus 1, IIIB, read-out: (X4) EC50, Table 2, single-round infection assay
[16] = Table 2, MTS, 50% effective concentration
[17] = read-out: (CA) EC50, Table 2, cell-associated transmission assay (IIIB)
[18] = Human immunodeficiency virus 1, PBMC

CCCCCCCCCCCCCC(=O)OC[C@H]1O[C@@H](n2cc(C)c(=O)[nH]c2=O)C[C@@H]1F [Compound 6, 5′-O-(myristoyl)-3′-fluoro-2′,3′-dideoxythymidine]
EC50 [1, 15]: ≤ 1 µM
EC50 ([1]; Human immunodeficiency virus 1, IIIB, read-out: (X4) EC50, Table 3, viral entry inhibition assay): 0.7 µM
EC50 [2, 16]: 606 µM
EC50 ([2]; Table 3, conjugates vs physical mixtures): 606 µM
cytotoxicity to vaginal cells [3]: did not show significant cytotoxic effects
anti-HIV activity (in words) [4]: significant anti-HIV activity at noncytotoxic concentrations
antiviral index, times better than AZT [4]: > 30 times
antiviral index, times better than FLT [4]: > 4 times
effect on sperm viability [5]: did not alter vaginal cell and sperm viability
EC50 [6, 17]: 6.4 µM
EC50 ([6]; read-out: (CA) EC50, Table 3, cell-to-cell transmission assay (IIIB)): 6.4 µM
EC50 ([7]; read-out: (R5) EC50, Table 2, single-round infection assay): ≤ 1 µM
EC50 ([7]; read-out: (R5) EC50, Table 3, viral entry inhibition assay): 1.1 µM

5(6)-carboxyfluorescein [FAM]
cell fluorescence (real time fluorescence microscopy) [8]: no significant fluorescence
viable cells [9]: at least 80%

CCSCCCCCCCCCCCC(=O)O [12-thioethyldodecanoic acid]
EC50 [10]: 9.4 µM

CCSCCCCCCCCCCCC(=O)OC[C@H]1O[C@@H](n2cc(C)c(=O)[nH]c2=O)C[C@@H]1F [Compound 8, 3′-fluoro-2′,3′-dideoxy-5′-O-(12-thioethyldodecanoyl)thymidine]
IC50 [11]: 0.001 µM
IC90 [11]: 0.0082 µM
EC50 [1, 15]: ≤ 1 µM
EC50 ([1]; read-out: (X4) EC50, Table 2, single-round infection assay): 1 µM
EC50 [2, 16]: > 2000 µM
IC50 [12]: 0.0006 µM
IC90 [12]: 0.0103 µM
cytotoxicity to vaginal cells [3]: did not show significant cytotoxic effects
IC50 [13, 18]: 0.0136 µM
IC90 [13, 18]: 0.0457 µM
fold more potent than FLT against A-17 ([13]; versus FLT IC50): twice as active
anti-HIV activity (in words) [4]: significant anti-HIV activity at noncytotoxic concentrations
antiviral index, times better than AZT [4]: > 30 times
antiviral index, times better than FLT [4]: > 4 times
effect on sperm viability [5]: did not alter vaginal cell and sperm viability
EC50 [6, 17]: 2.3 µM
IC50 [14, 18]: 0.112 µM
IC90 [14, 18]: 0.662 µM
fold more potent than FLT against 4755-5 ([14]; versus FLT IC50): equally active
